Legend:
[1] = molecular target: recombinant Dictyostelium miozin (Dictyostelium) (Dictyostelium discoideum, UniProt P08799); experiment: actomyosin steady state ATPase measurement, Dictyostelium myosin; type: biochemical; details: for IC50: concentration required for semi-maximal inhibition of ATPase, read-out: IC50 (μM) Dicty; for % inhibition. complete Dicty: maximum value of inhibition of ATPase activity; for inhibition at 5 µM: read-out: % inhibition at 5 μM (or 10 μM if racemate) Dicty; for inhibition at 50 µM: read-out: % inhibition at 50 μM (or 100 μM if racemate) Dicty
Excerpt: (§1) […]; (ii) the concentration required for semi-maximal inhibition.

[2] = molecular target: recombinant human non-muscle myosin 2 NM2C (Homo sapiens, UniProt Q7Z406); experiment: actomyosin steady state ATPase measurement, NM2C; type: biochemical; details: for IC50: concentration required for semi-maximal inhibition of ATPase; for % inhibition. complete NM2C: maximum value of inhibition of ATPase activity; for inhibition at 5 µM: read-out: % inhibition at 5 μM (or 10 μM if racemate) NM2C, 5 μM (10 μM if racemate); for inhibition at 5 µM / inhibition at 50 µM: ATPase activity; for inhibition at 50 µM: read-out: % inhibition at 50 μM (or 100 μM if racemate) NM2C, 50 μM (100 μM if racemate)
Excerpt: as §1

[3] = molecular target: T1, isolated porcine cardiac ventricular myocardium (cardiac) (Sus scrofa, UniProt P79293); experiment: actomyosin steady state ATPase measurement, cardiac myosin; type: biochemical; details: for IC50: concentration required for semi-maximal inhibition of ATPase; for % inhibition. complete cardiac: maximum value of inhibition of ATPase activity; for inhibition at 5 µM: read-out: % inhibition at 5 μM (or 10 μM if racemate) cardiac, 5 μM (10 μM if racemate); for inhibition at 5 µM / inhibition at 50 µM: ATPase activity; for inhibition at 50 µM: read-out: % inhibition at 50 μM (or 100 μM if racemate) cardiac, 50 μM (100 μM if racemate)
T1 construct: isolated porcine cardiac ventricular myocardium (cardiac); from tissue; host or cells: porcine cardiac ventricle
Excerpt: as §1

[4] = test system: isolated rabbit skeletal muscle myosin (skeletal); experiment: actomyosin steady state ATPase measurement, skeletal muscle myosin; type: biochemical; details: for % inhibition at 5 μM (or 10 μM if racemate) Skeletal: 5 μM (10 μM if racemate); for % inhibition at 5 μM (or 10 μM if racemate) Skeletal / % inhibition at 50 μM (or 100 μM if racemate) Skeletal: ATPase activity; for % inhibition at 50 μM (or 100 μM if racemate) Skeletal: 50 μM (100 μM if racemate); for IC50: concentration required for semi-maximal inhibition of ATPase; for % inhibition. complete Skeletal: maximum value of inhibition of ATPase activity
Excerpt: as §1

[5] = molecular target: isolated smooth muscle myosin (UniProt P10587); type: biochemical, chamois; details: concentration required for semi-maximal inhibition of ATPase
Excerpt: (ii) the concentration required for semi-maximal inhibition.

M. quadriceps femoris = experiment: isometric force measurement of live, anesthetized rat M. quadriceps femoris due to electrical stimulation; type: in vivo; details: 6 mg i.p.
Experimental: The maximum isometric force induced by the stimulation was determined after intraperitoneal injection of some of the compounds of the invention. During the measurement, the following parameters of live anesthetized rats were continuously monitored: • a) heart rate • b) blood flow in the neck arteries • c) respiratory frequency • d) blood oxygen saturation ratio Results from live anesthetized rats are summarized in the table below.

[6] = vital parameters of live anesthetized rats monitored during isometric force measurement; type: in vivo; details: 6 mg i.p., anesthetized rat
Experimental: The maximum isometric force induced by the stimulation was determined after intraperitoneal injection of some of the compounds of the invention. During the measurement, the following parameters of live anesthetized rats were continuously monitored: • a) heart rate • b) blood flow in the neck arteries • c) respiratory frequency • d) blood oxygen saturation ratio

[7] = molecular target: isolated smooth muscle myosin (UniProt P10587); type: biochemical, chamois; details: for % inhibition at 5 μM (or 10 μM if racemate) Smooth: 5 μM (10 μM if racemate); for % inhibition at 5 μM (or 10 μM if racemate) Smooth / % inhibition at 50 μM (or 100 μM if racemate) Smooth: ATPase activity; for % inhibition at 50 μM (or 100 μM if racemate) Smooth: 50 μM (100 μM if racemate); for % inhibition. complete Smooth: maximum value of inhibition of ATPase activity
[8] = molecular target: recombinant human non-muscle myosin 2 NM2A (Homo sapiens, UniProt P35579); experiment: actomyosin steady state ATPase measurement, NM2A; type: biochemical; details: for IC50: concentration required for semi-maximal inhibition of ATPase; for % inhibition. complete NM2A: maximum value of inhibition of ATPase activity; for inhibition at 5 µM: read-out: % inhibition at 5 μM (or 10 μM if racemate) NM2A, 5 μM (10 μM if racemate); for inhibition at 5 µM / inhibition at 50 µM: ATPase activity; for inhibition at 50 µM: read-out: % inhibition at 50 μM (or 100 μM if racemate) NM2A, 50 μM (100 μM if racemate)
Excerpt: as §1

[9] = molecular target: recombinant human non-muscle myosin 2 NM2B (Homo sapiens, UniProt P35580); experiment: actomyosin steady state ATPase measurement, NM2B; type: biochemical; details: for IC50: concentration required for semi-maximal inhibition of ATPase; for % inhibition. complete NM2B: maximum value of inhibition of ATPase activity; for inhibition at 5 µM: read-out: % inhibition at 5 μM (or 10 μM if racemate) NM2B, 5 μM (10 μM if racemate); for inhibition at 5 µM / inhibition at 50 µM: ATPase activity; for inhibition at 50 µM: read-out: % inhibition at 50 μM (or 100 μM if racemate) NM2B, 50 μM (100 μM if racemate)
Excerpt: as §1

T1 sequence (P79293 whole entry): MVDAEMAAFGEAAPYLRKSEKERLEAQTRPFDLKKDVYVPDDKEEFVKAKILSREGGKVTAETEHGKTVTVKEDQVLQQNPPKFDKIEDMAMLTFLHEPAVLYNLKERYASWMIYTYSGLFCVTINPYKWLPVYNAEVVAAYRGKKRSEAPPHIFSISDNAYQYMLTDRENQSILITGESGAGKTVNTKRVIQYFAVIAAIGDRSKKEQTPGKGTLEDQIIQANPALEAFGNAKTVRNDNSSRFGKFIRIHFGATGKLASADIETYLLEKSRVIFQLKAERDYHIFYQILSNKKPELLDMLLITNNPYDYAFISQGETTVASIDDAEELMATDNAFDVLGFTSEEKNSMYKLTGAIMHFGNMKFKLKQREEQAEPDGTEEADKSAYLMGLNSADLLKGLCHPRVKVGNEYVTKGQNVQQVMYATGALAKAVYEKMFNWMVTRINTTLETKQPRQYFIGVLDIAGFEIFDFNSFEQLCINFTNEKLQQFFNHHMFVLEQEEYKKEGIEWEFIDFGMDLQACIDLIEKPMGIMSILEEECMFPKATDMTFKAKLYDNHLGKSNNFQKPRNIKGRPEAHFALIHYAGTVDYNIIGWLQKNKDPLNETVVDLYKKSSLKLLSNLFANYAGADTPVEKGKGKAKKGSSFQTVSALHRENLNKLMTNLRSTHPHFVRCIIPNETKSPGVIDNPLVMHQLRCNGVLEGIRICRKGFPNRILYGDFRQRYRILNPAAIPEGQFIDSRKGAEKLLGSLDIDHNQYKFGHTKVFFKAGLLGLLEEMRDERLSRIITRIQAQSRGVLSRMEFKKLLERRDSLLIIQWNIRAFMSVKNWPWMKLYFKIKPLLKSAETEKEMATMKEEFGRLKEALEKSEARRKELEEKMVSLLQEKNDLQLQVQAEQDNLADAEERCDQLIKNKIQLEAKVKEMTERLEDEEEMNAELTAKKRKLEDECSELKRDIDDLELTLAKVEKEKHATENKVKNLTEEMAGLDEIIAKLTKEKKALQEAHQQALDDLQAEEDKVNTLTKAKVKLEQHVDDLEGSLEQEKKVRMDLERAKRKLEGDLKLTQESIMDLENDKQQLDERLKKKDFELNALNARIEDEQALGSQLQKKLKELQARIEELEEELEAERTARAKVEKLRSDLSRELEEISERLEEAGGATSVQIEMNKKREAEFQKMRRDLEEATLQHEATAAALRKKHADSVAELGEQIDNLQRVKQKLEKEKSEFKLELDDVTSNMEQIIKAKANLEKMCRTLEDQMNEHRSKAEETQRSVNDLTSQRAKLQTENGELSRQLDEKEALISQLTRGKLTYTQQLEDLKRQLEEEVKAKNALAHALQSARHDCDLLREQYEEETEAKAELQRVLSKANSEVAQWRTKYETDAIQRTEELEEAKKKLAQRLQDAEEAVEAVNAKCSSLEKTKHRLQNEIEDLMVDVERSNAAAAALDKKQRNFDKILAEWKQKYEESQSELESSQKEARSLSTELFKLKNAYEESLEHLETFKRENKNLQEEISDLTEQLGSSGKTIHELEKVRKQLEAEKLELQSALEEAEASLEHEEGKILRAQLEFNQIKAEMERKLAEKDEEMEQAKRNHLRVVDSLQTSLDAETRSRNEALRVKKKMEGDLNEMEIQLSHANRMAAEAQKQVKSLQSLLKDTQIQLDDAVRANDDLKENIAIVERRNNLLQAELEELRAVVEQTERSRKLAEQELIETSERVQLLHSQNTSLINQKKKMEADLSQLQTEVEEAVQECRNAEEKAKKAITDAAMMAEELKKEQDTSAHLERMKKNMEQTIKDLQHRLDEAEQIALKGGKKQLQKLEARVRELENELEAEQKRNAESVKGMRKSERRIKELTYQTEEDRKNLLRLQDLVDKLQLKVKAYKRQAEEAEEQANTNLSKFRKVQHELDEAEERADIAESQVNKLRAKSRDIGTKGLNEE
Sequence of isolated smooth muscle myosin (P10587 whole entry): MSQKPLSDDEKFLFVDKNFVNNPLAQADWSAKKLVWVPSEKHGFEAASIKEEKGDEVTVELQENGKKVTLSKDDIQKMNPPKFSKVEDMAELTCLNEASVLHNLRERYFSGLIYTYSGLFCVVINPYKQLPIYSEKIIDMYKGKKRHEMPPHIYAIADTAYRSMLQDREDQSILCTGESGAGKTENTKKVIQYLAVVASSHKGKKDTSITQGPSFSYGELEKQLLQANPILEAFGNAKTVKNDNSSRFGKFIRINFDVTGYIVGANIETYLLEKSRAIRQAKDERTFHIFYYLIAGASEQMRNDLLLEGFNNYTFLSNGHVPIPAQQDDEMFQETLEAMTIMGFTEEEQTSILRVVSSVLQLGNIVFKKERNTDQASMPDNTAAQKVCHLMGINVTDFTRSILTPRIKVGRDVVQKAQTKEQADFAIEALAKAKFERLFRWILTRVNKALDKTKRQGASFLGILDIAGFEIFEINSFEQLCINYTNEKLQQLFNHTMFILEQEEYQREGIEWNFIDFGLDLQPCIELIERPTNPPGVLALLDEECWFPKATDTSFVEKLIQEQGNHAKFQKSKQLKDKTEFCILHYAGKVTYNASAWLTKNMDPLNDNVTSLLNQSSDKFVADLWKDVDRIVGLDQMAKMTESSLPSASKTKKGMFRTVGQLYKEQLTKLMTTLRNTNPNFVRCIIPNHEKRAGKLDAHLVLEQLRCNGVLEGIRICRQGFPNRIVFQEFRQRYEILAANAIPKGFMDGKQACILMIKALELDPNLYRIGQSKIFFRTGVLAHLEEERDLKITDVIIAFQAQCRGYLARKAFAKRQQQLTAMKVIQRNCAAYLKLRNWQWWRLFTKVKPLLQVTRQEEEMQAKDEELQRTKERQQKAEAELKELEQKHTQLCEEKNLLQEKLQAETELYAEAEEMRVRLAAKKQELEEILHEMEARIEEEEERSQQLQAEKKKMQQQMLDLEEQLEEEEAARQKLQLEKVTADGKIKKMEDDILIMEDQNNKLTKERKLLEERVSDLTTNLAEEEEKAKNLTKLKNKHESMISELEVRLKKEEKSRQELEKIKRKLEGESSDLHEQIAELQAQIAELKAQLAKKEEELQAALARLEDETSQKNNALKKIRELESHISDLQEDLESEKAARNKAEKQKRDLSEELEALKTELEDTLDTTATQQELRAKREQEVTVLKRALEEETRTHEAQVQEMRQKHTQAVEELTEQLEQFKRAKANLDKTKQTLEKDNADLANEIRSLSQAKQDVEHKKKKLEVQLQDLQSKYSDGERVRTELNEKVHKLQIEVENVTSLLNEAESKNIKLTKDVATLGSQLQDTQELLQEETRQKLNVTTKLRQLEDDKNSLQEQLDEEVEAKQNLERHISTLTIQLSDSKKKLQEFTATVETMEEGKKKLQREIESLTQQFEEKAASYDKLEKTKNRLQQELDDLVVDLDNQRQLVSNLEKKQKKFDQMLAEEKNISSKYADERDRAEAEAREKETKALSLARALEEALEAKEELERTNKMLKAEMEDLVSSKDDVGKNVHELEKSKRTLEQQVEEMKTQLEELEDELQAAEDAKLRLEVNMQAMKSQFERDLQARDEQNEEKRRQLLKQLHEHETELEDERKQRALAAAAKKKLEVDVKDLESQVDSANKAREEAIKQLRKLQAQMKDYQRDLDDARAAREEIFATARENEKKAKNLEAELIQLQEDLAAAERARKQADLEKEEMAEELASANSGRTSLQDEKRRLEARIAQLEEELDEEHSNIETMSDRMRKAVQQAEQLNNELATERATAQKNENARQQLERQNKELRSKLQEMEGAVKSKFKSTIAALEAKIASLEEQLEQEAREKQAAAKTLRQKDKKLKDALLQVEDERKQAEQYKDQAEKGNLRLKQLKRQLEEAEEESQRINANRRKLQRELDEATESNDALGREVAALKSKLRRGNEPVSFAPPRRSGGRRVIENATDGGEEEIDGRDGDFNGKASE

| SMILES | IC50 [1] [µM] | inhibition at 5 µM [1] [%] | inhibition at 50 µM [1] [%] | IC50 [2] [µM] | inhibition at 5 µM [2] [%] | inhibition at 50 µM [2] [%] | IC50 [3] [µM] | % inhibition. complete cardiac [3] [%] | inhibition at 5 µM [3] [%] | inhibition at 50 µM [3] [%] | % inhibition at 5 μM (or 10 μM if racemate) Skeletal [4] [%] | % inhibition at 50 μM (or 100 μM if racemate) Skeletal [4] [%] | IC50 [4] [µM] | % inhibition. complete Skeletal [4] [%] | IC50 [5] [µM] | % inhibition at 5 μM (or 10 μM if racemate) Smooth [7] [%] | % inhibition at 50 μM (or 100 μM if racemate) Smooth [7] [%] | % inhibition. complete Smooth [7] [%] | inhibition at 50 µM [8] [%] | inhibition at 50 µM [9] [%] | other results |
| --- | --- | --- | --- | --- | --- | --- | --- | --- | --- | --- | --- | --- | --- | --- | --- | --- | --- | --- | --- | --- | --- |
| O=C1c2ccncc2N=C2N(c3ccc(OC(F)(F)F)cc3)CCC12O (stereo not drawn) [Compound 238, 3a-Hydroxy-1-[4-(trifluoromethoxy)phenyl]-1H,2H,3H,3aH,4H-pyrrolo[2,3-b]1,7-naphthyridin-4-one] | 3.5 | 24 | 38 | 2.1 | 27 | 38 | 59 | 100 | 2 | 47 | 80 | 93 | 0.95 | 96 | 6.3 | 13 | 28 | 31 | – | – | Inhibition (%) Dicty ([1]; maximum inhibition, compounds in IC50 range 1-11 μM): 41%; % inhibition. complete Dicty [1]: 41%; % inhibition. complete NM2C [2]: 40%; Maximum change in isometric force at rear leg (%) (M. quadriceps femoris): 40%; Maximum change of vital parameters (%) heart rate [6]: 3%; Maximum change of vital parameters (%) oxygen saturation [6]: −12%; Maximum change of vital parameters (%) respiratory frequency [6]: −18%; Maximum change of vital parameters (%) blood flow ([6]; neck arteries): −10% |
| Cc1cc2c(s1)N=C1N(c3ccccc3)CCC1(O)C2=O (stereo not drawn) [Compound 198, 9-Hydroxy-5-methyl-12-phenyl-4-thia-2,12-diazatricyclo[7.3.0.0^3,7]dodeca-1,3(7),5-trien-8-one] | 5 | 51 | 96 | 6.8 | 51 | 84 | 4 | 100 | 64 | 89 | 90 | 99 | 1 | 100 | 7.6 | 44 | 88 | 100 | 79 | 80 | % inhibition. complete Dicty [1]: 100%; IC50 [8]: 15 µM; % inhibition. complete NM2A [8]: 100%; inhibition at 5 µM [8]: 26%; IC50 [9]: 15.1 µM; % inhibition. complete NM2B [9]: 100%; inhibition at 5 µM [9]: 24%; % inhibition. complete NM2C [2]: 100%; Inhibition (%) cardiac ([3]; maximum inhibition, compounds in IC50 range 3-6 μM): 100% |
| O=C1c2ncccc2N=C2N(c3ccccc3)CCC12O (stereo not drawn) [Compound 190, 8a-Hydroxy-6-phenyl-6H,7H,8H,8aH,9H-pyrrolo[2,3-b]1,5-naphthyridin-9-one] | – | – | 44 | – | – | 41 | – | – | – | 43 | – | 86 | – | – | – | – | 34 | – | 15 | 24 | – |
| O=C1c2cccnc2N=C2N(c3ccccc3)CCC12O (stereo not drawn) [Compound 189, 3a-Hydroxy-1-phenyl-1H,2H,3H,3aH,4H-pyrrolo[2,3-b]1,8-naphthyridin-4-one] | > 100 | 0 | 0 | 1 | 11 | 13 | 26 | 72 | 11 | 47 | 37 | 80 | 7 | 92 | 1 | 8 | 7 | 8 | 7 | -5 | IC50 [8]: 6 µM; Inhibition (%) NM2A ([8]; maximum inhibition, compounds in IC50 range 5-10 μM): 8%; % inhibition. complete NM2A [8]: 8%; inhibition at 5 µM [8]: 4%; IC50 [9]: > 100 µM; inhibition at 5 µM [9]: 0%; Inhibition (%) smooth ([7]; maximum inhibition, compounds in IC50 range 1-5 μM): 8% |
| O=C1c2sccc2N=C2N(c3ccccc3)CCC12O (stereo not drawn) [Compound 183, 7-Hydroxy-4-phenyl-10-thia-2,4-diazatricyclo[7.3.0.0^3,7]dodeca-1(9),2,11-trien-8-one] | 5 | 26 | 80 | 60 | 6 | 37 | 8 | 84 | 33 | 73 | 80 | 93 | 1 | 95 | 15 | 17 | 51 | 66 | 37 | 45 | % inhibition. complete Dicty [1]: 100%; IC50 [8]: 87 µM; % inhibition. complete NM2A [8]: 100%; inhibition at 5 µM [8]: 4%; IC50 [9]: 12 µM; % inhibition. complete NM2B [9]: 56%; inhibition at 5 µM [9]: 16%; % inhibition. complete NM2C [2]: 83% |

From patent US12421243B2, “Pharmaceutically effective compounds inhibiting selectively the myosin 2 isoforms” (PRINTNET KERESKEDELMI ÉS SZOLGÁLTATÓ KFT., priority 2018, dated 2025)
